# Read-outs that look alike come from different tables or passages of the source.
# Columns and labels:
# [1] = tested on: osteoclast differentiation; assay: Inhibitory effects on osteoclast differentiation (co-culture of bone marrow cells with osteoblast, TRAP staining); type: cell-based, mice; conditions: for inhibition at 1 µM: Mus musculus, Osteoclast, 168 h, read-out: % inhibitory activity on osteoclastogenesis
# Procedure, shortened: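 Percent inhibition versus control is based on microscope counts of TRAP-positive osteoclasts (3 or more nuclei) after 7 days of compound exposure. Cultures paired ddY mouse marrow cells with ICR calvarial osteoblasts, driven by dexamethasone 10^−7M plus vitamin D3 10^−8M, with medium and compound changed every 2–3 days.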
# osteoblast = assay: Effect on bone formation (osteoblast nodule mineralization, Alizarin red S); type: cell-based, ICR mice; conditions: calvarial osteoblast in osteogenic differentiation medium
# Protocol: The osteoblast, treated in this experiment, was prepared from the osteoblast as prepared in the above.
# The osteoblast, isolated from sequential enzymatic treatment of calvariae from neonated ICR mice, was cultured in α-MEM medium containing 10% FBS for 4˜5 days. The osteoblast was also cultured for 24 hr after seeding the cells on a 12 well plate (10^5 cell/well), and medium was exchanged with the osteogenic differentiation medium containing 10 mM β-glycerophosphate and 50 μg/ml ascorbic acid.
# The test substances at the concentration of 0.1 uM and 0.1 nM were added to the above medium for evaluating the effect promoting bone formation. The differentiation medium containing the test substances was exchanged every 3 or 4 days for 14 to 21 days until confirming the nodule mineralization.
# The cell was rinsed twice with distilled water, and fixed by the 10% formalin solutions for 30 minutes. Alizarin red S and Von-kossa Solution were treated on the plate for measuring deposited calcium and phosphate in cell matrix, and the activity of the test substances on the bone formation was analyzed by determining stained area.
# Additionally, for the purpose of estimating quantitative Arizarin red S in cell matrix, stained Arizarin red S was extracted by treating 10 mM sodium phosphate solution (pH 7.0), containing 10% cetylpyridinium chloride, for 15˜30 minutes in the shaking incubator, and then the amount of the deposited calcium was estimated by calculating the absorbance of the extracted Arizarin red S at 564 nm. […]
# cells = assay: Cytotoxicity test (MTT); type: cell-based; conditions: 10^−6M, 72 hrs, compared with the control group
# Procedure, shortened: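 Benzamidine derivatives were checked for cytotoxicity with an MTT assay. Test substances were diluted in a suitable solvent to 10^−2M. Cells were seeded at 1×10^4 cell/100 μL per well in 96-well microplates and grown for 72 hrs. During the final 4 hrs, 25 μL of MTT (2 mg/mL in PBS) was added. Plates were then centrifuged, the medium removed, formazan dissolved in 100 μL DMSO, and absorbance read at 540 nm.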
# ovariectomized ddY mouse = assay: Therapeutic effect in the ovariectomized osteoporetic mouse model (trabecular bone volume of the femur); type: in vivo, ddY mice; conditions: 50 mg/kg/day oral gavage for 4 weeks from 4 weeks after ovariectomy, salts (methansulfonic acid or HCl); for change in vivo at 50 mg/kg: Mus musculus, 672 h, read-out: Changes on TBV (% changes vs vehicle control)
# Protocol: The therapeutic effects of each benzamidine derivates were evaluated on the ovariectomized ddY mouse. Benzamidine derivates were dosed from 4 weeks after operation for 4 weeks and the changes on the trabecular bone volume (TBV) of the femur were observed via histomorphometry.
# Female ddY mice (6-wk old upon receipt, SLC, Japan) were used after acclimatization for 7 days. Animals were allocated 5 per polycarbonate cage in a temperature (20-25° C.) and humidity (30-35%) controlled room. Light:dark cycle was 12 hr:12 hr and feed (Samyang, Korea) and water were supplied free to access.
# Salts of benzamidine derivates (Methansulfonic acid or HCl) were used for the test substances of this invention. Test substances are dissolved and/or suspended in injectable distilled water and administered at a dosage volume of 10 ml/kg by oral gavage. All test substances are dosed from 4 weeks after operation for 4 weeks at 50 mg/kg/day.
# To induce estrogen-deficient osteoporosis, bilateral ovaries are removed and then closed by routine methods. Operation was conduct under Ketamine hydrochloride and xylazine hydrochloride anesthesia.
# The left femur of each mouse were separated at sacrifice, and fixed in 10% neutral buffered formalin (NBF), then decalcified in decalcifying solution (24.4% formic acid, and 0.5N sodium hydroxide) for 5 days (mixed decalcifying solution was exchanges once a day for 5 days). After the dexalcification, the femur was embedded in paraffin, sectioned (3˜4 μm) and stained with hematoxylin-eosin stain.
# TBV was calculated using automated image analysis (analySIS Image Processing; SIS, Germany) under magnification of ×200 in the uniform area of trochlea epiphyseal regions (growth plate regions were excluded) of prepared histological specimens. TBV was calculated as percentage (%) levels.
# The changes of TBV compared to that of vehicle control are calculated as following Equation 1 to help the understanding of the efficacy of test substances. Percentage changes=[((TBV of a−TBV of b)/TBV of b)×100] Equation 1
# [2] = 1 μm, co-culture of bone marrow cells and osteoblast, 7 days, TRAP-positive osteoclasts versus controls
# [3] = 1 m, co-culture of bone marrow cells and osteoblast, 7 days, TRAP-positive osteoclasts versus controls
Structure (SMILES),"inhibition at 1 µM [1, 2]",melting point,bone forming activity (%) (osteoblast; 0.1 nM),bone forming activity (%) (osteoblast; 0.1 μM),also measured
"N=C(NO)c1ccc(OCCCCCOc2ccc(-c3csc(-c4cccnc4)n3)cc2)cc1 [Example 7, N-hydroxy-4-(5-[4-(2-pyridin-3-yl-1,3-thiazol-4-yl)phenoxy]pentoxy)-benzamidine]",94.5%,149 to 154 °C,1.24%,9.61%,
"CCNc1nc(-c2ccc(OCCCCCOc3ccc(C(=N)NO)cc3)cc2)c(CC2CCCC2)s1 [Example 110, N-hydroxy-4-(5-[4-(5-cyclopentylmethyl-2-ethylamino-1,3-thiazol-4-yl)phenoxy]pentoxy)-benzamidine]",,,9.76%,9.37%,"inhibition at 1 µM [1, 3]: 100%"
"CCCCCc1nc(-c2ccc(OCCCCCOc3ccc(C(=N)NO)cc3)cc2)c(C)s1 [Example 15, N-hydroxy-4-(5-[4-(5-methyl-2-pentyl-1,3-thiazol-4-yl)phenoxy]pentoxy)-benzamidine]",,81 to 89 °C,,,inhibition at 1 µM [1]: 68.3%; Survival rates of the cells (cells; MC3T3-E1 cells): 81.8%; Survival rates of the cells (cells; ST2 cells): 42.3%
"CCc1nc(-c2ccc(OCCCCCOc3ccc(C(=N)NO)cc3)cc2)c(C)s1 [Example 11, N-hydroxy-4-(5-[4-(2-ethyl-5-methyl-1,3-thiazol-4-yl)phenoxy]pentoxy)-benzamidine]",53.2%,127 to 131 °C,,,Survival rates of the cells (cells; MC3T3-E1 cells): 87.2%; Survival rates of the cells (cells; ST2 cells): 33.1%
"CCc1sc(N(C)CCO)nc1-c1ccc(OCCCCCOc2ccc(C(=N)NO)cc2)cc1 [Example 129, N-hydroxy-4-(5-[4-(5-ethyl-2-((2-hydroxyethyl)-methyl-amino)-1,3-thiazol-4-yl)phenoxy]pentoxy)-benzamidine]",,,11.18%,11.54%,"inhibition at 1 µM [1, 3]: 64.7%"
"CCN(CCN1CCOCC1)c1nc(-c2ccc(OCCCCCOc3ccc(C(=N)NO)cc3)cc2)c(C)s1 [Example 124, N-hydroxy-4-(5-[4-(2-(ethyl-1-(2-morpholinoethyl)-amino)-5-methyl-1,3-thiazol-4-yl)phenoxy]pentoxy)-benzamidine]",,,6.44%,12.9%,"% inhibitory activity on osteoclastogenesis ([1]; co-culture of bone marrow cells and osteoblast, 7 days, TRAP-positive osteoclasts versus controls): 87.9%; Changes on TBV (% changes vs vehicle control) (ovariectomized ddY mouse): 72.82%"
"CCc1sc(C2CCCCC2)nc1-c1ccc(OCCCCCOc2ccc(C(=N)NO)cc2)cc1 [Example 22, N-hydroxy-4-(5-[4-(2-cyclohexyl-5-ethyl-1,3-thiazol-4-yl)phenoxy]pentoxy)-benzamidine]",92.6%,,10.33%,8.56%,
"CCCCCc1nc(-c2ccc(OCCCCCOc3ccc(C(=N)NO)cc3)cc2)c(CC)s1 [Example 23, N-hydroxy-4-(5-[4-(5-ethyl-2-pentyl-1,3-thiazol-4-yl)phenoxy]pentoxy)-benzamidine]",,79 to 88 °C,,,inhibition at 1 µM [1]: 47.7%; change in vivo at 50 mg/kg (ovariectomized ddY mouse): 28%
"CC(C)c1nc(-c2ccc(OCCCCCOc3ccc(C(=N)NO)cc3)cc2)cs1 [Example 5, N-hydroxy-4-(5-[4-(2-isopropyl-1,3-thiazol-4-yl)phenoxy]pentoxy)-benzamidine]",87.5%,95 to 129 °C,,,
"N=C(NO)c1ccc(OCCCCCOc2ccc(-c3nc(-c4cccnc4)sc3Cc3ccccc3)cc2)cc1 [Example 41, N-hydroxy-4-(5-[4-(5-benzyl-2-pyridin-3-yl-1,3-thiazol-4-yl)phenoxy]pentoxy)-benzamidine]",64%,134 to 143 °C,,,Survival rates of the cells (cells; MC3T3-E1 cells): 84.6%; Survival rates of the cells (cells; ST2 cells): 48.7%
"Cc1nc(-c2ccc(OCCCCCOc3ccc(C(=N)NO)cc3)cc2)cs1 [Example 3, N-hydroxy-4-(5-[4-(2-methyl-1,3-thiazol-4-yl)phenoxy]pentoxy)-benzamidine]",41.4%,139 to 140 °C,,,
"Cc1sc(C2CCCCC2)nc1-c1ccc(OCCCCCOc2ccc(C(=N)NO)cc2)cc1 [Example 14, N-hydroxy-4-(5-[4-(2-cyclohexyl-5-methyl-1,3-thiazol-4-yl)phenoxy]pentoxy)-benzamidine]",89.2%,,10.56%,12.06%,
"CCc1nc(-c2ccc(OCCCCCOc3ccc(C(=N)NO)cc3)cc2)c(CC)s1 [Example 18, N-hydroxy-4-(5-[4-(2,5-diethyl-1,3-thiazol-4-yl)phenoxy]pentoxy)-benzamidine]",24.8%,121 to 127 °C,,,
"CCCCCc1nc(-c2ccc(OCCCCCOc3ccc(C(=N)NO)cc3)cc2)cs1 [Example 9, N-hydroxy-4-(5-[4-(2-pentyl-1,3-thiazol-4-yl)phenoxy]pentoxy)-benzamidine]",,,6.14%,13.68%,inhibition at 1 µM [1]: 100%
"CCc1sc(-c2cccnc2)nc1-c1ccc(OCCCCCOc2ccc(C(=N)NO)cc2)cc1 [Example 21, N-hydroxy-4-(5-[4-(5-ethyl-2-pyridin-3-yl-1,3-thiazol-4-yl)phenoxy]pentoxy)-benzamidine]",,146 to 153 °C,,,change in vivo at 50 mg/kg (ovariectomized ddY mouse): 75.5%

# Reference: US8178688B2, “Benzamidine derivatives, process for the preparation thereof and pharmaceutical composition comprising the same” (Dong Wha Pharmaceutical Co., Ltd., priority 2004, dated 2012)
